Measured values from patent US12617773B2, “Azetidin-3-ylmethanol derivatives as CCR6 receptor modulators” (Idorsia Pharmaceuticals Ltd, priority 2020, dated 2026).

The molecules below were run against T1, human CCR6 (Homo sapiens, UniProt P51684) (assay: FLIPR assay (inhibition of CCL20-induced calcium signal)). Conditions: HEK-293 cells expressing human CCR6; mean values where determined several times; read-out: FLIPR IC50.
T1 construct: expressed in transfected cells; host or cells: HEK-293
T1 sequence (P51684 1-374): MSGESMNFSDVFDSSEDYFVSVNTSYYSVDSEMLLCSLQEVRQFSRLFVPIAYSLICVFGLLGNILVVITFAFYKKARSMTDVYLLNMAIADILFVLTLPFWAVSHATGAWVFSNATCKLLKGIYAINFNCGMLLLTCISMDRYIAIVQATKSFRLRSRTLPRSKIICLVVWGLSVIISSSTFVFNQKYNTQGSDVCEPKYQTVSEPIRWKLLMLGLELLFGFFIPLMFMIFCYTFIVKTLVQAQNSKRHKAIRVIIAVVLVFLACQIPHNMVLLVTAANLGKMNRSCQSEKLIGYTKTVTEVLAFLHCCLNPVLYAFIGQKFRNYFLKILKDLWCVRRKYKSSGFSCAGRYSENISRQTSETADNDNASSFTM
Format: cell-based
In short: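 IC50 values come from baseline-corrected peak calcium fluorescence after agonist. The agonist was CCL20 at 10 nM final, added to engineered human CCR6 HEK-293 cells following a 30-min, room-temperature, dark preincubation with serially diluted compound. Readings were taken in a fluorometric imaging plate reader.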

SMILES | IC50 [nM]
CC(C)c1ccc([C@](O)(c2cncc(CCC(C)(O)c3ccn(C4CC4)n3)c2)C2(C)CN(C)C2)cc1 (stereo partly shown) [Example 644] | 147
Cc1nccc(C(C)(O)CCc2cncc([C@@](O)(c3ccc(C(C)C)cc3)C3(C)CN(C)C3)c2)n1 (stereo partly shown) [Example 645] | 110
Cc1cnc(C(C)(O)CCc2cncc([C@@](O)(c3ccc(C(C)C)cc3)C3(C)CN(C)C3)c2)cn1 (stereo partly shown) [Example 646] | 129
Cc1ncc(C(C)(O)CCc2cncc([C@@](O)(c3ccc(C(C)C)cc3)C3(C)CN(C)C3)c2)s1 (stereo partly shown) [Example 647] | 76.3
Cc1cc(C(C)(O)C#Cc2cncc([C@@](O)(c3ccc(C(C)C)cc3)C3(C)CN(C)C3)c2)on1 (stereo partly shown) [Example 648] | 46.6
CC(C)c1ccc([C@](O)(c2cncc(C#CC(C)(O)c3nccn3C)c2)C2(C)CN(C)C2)cc1 (stereo partly shown) [Example 649] | 185
Cc1ccc(C(C)(O)C#Cc2cncc([C@@](O)(c3ccc(C(C)C)cc3)C3(C)CN(C)C3)c2)s1 (stereo partly shown) [Example 650] | 15.9
CC(C)c1ccc([C@](O)(c2cncc(C#CC(C)(O)c3cccn3C)c2)C2(C)CN(C)C2)cc1 (stereo partly shown) [Example 651] | 16.1
Cc1cccc(C(C)(O)C#Cc2cncc([C@@](O)(c3ccc(C4(C(F)(F)F)CC4)cc3)C3(C)CN(C)C3)c2)n1 (stereo partly shown) [Example 654] | 46.2
Cc1cccc(C(C)(O)C#Cc2cncc([C@@](O)(c3ccc(C4(C)CC4)cc3)C3(C)CN(C)C3)c2)n1 (stereo partly shown) [Example 655] | 55
Cc1cccc(C(C)(O)C#Cc2cncc([C@@](O)(c3ccc(C(F)(F)F)cc3)C3(C)CN(C)C3)c2)n1 (stereo partly shown) [Example 656] | 208
CCc1ccc([C@](O)(c2cncc(C#CC(C)(O)c3cccc(C)n3)c2)C2(C)CN(C)C2)cc1 (stereo partly shown) [Example 657] | 86.6
Cc1cccc(C(C)(O)C#Cc2cncc([C@@](O)(c3ccc(C(C)(C)C)cc3)C3(C)CN(C)C3)c2)n1 (stereo partly shown) [Example 658] | 86.6
CCC1([C@](O)(c2ccc(OC(F)(F)F)cc2)c2cncc(C#CC(C)(O)c3cccc(C)n3)c2)CN(C)C1 (stereo partly shown) [Example 659] | 344
Cc1cccc(C(C)(O)C#Cc2cncc([C@@](O)(c3ccc(CC(F)(F)F)cc3)C3(C)CN(C)C3)c2)n1 (stereo partly shown) [Example 660] | 82.4
Cc1cccc(C(C)(O)C#Cc2cncc([C@@](O)(c3ccc(C(C)C)cc3)C3(F)CN(C)C3)c2)n1 (stereo partly shown) [Example 661] | 54.3
CC(=O)N1CCC(C#Cc2cc([C@@](O)(c3ccc(C(C)C)cc3)C3(C)CN(C)C3)cnn2)CC1 [Example 662] | 331
CC(=O)NC(C)(C)C#Cc1cc([C@@](O)(c2ccc(C(C)C)cc2)C2(C)CN(C)C2)cnn1 [Example 663] | 992
CC(C)c1ccc([C@](O)(c2cnnc(C#CC(C)(C)N3CCCC3=O)c2)C2(C)CN(C)C2)cc1 [Example 664] | 211

SMILES | IC50 [nM]
Cc1cccc(C(C)(O)C#Cc2cncc([C@@](O)(c3ccc(C(C)C)cc3)C3(C)CN(C(C)C)C3)c2)n1 (stereo partly shown) [Example 665] | 40.4
Cc1cccc(C(C)(O)C#Cc2cncc([C@@](O)(c3ccc(C(C)C)cc3)C3(C)CN(CCO)C3)c2)n1 (stereo partly shown) [Example 667] | 52.4
Cc1cccc(C(C)(O)C#Cc2cncc([C@@](O)(c3ccc(C(C)C)cc3)C3(C)CN(CC(F)F)C3)c2)n1 (stereo partly shown) [Example 668] | 101
CC(=O)N1CCC(COc2cncc([C@@](O)(c3ccc(C(C)C)cc3)C3(C)CN(C)C3)c2)CC1 [Example 669, 1-(4-{5-[(R)-(1,3-Dimethyl-azetidin-3-yl)-hydroxy-(4-isopropyl-phenyl)-methyl]-pyridin-3-yloxymethyl}-piperidin-1-yl)-ethanone] | 62.1
Cc1cccc(C(C)(O)C#Cc2cncc([C@@](O)(c3ccc(C(C)C)cc3)C3(C)CN(C4CC4)C3)c2)n1 (stereo partly drawn) [Example 670, 4-{5-[(R)-(1-Cyclopropyl-3-methyl-azetidin-3-yl)-hydroxy-(4-isopropyl-phenyl)-methyl]-pyridin-3-yl}-2-(6-methyl-pyridin-2-yl)-but-3-yn-2-ol] | 42.8
Cc1ncc(C2CC(=O)N(c3cncc([C@@](O)(c4ccc(C(C)C)cc4)C4(C)CN(C)C4)c3)C2)s1 (stereo partly shown) [Example 672] | 172
Cc1ccc(C2CC(=O)N(c3cncc([C@@](O)(c4ccc(C(C)C)cc4)C4(C)CN(C)C4)c3)C2)cn1 (stereo partly shown) [Example 673] | 199
CC(C)c1ccc([C@](O)(c2cncc(N3CC(c4cccc(C(C)C)n4)CC3=O)c2)C2(C)CN(C)C2)cc1 (stereo partly shown) [Example 674] | 25.9
CC(C)c1ccc([C@](O)(c2cncc(N3CC(c4ccc(C(F)(F)F)nc4)CC3=O)c2)C2(C)CN(C)C2)cc1 (stereo partly shown) [Example 675] | 227
CC(C)c1ccc([C@](O)(c2cncc(N3CC(c4cnn(C)c4)CC3=O)c2)C2(C)CN(C)C2)cc1 (stereo partly shown) [Example 676] | 108
CC(C)c1ccc([C@](O)(c2cncc(N3CC(c4cnn(C(F)F)c4)CC3=O)c2)C2(C)CN(C)C2)cc1 (stereo partly shown) [Example 678] | 156
CC(=O)N1CCC(C2CC(=O)N(c3cc([C@@](O)(c4ccc(C(C)C)cc4)C4(C)CN(C)C4)cnn3)C2)CC1 (stereo partly drawn) [Example 680, 4-(1-Acetyl-piperidin-4-yl)-1-{5-[(R)-(1,3-dimethyl-azetidin-3-yl)-hydroxy-(4-isopropyl-phenyl)-methyl]-pyridazin-3-yl}-pyrrolidin-2-one] | 428
CC(C)c1ccc([C@](O)(c2cnnc(N3CC4OCCC4C3=O)c2)C2(C)CN(C)C2)cc1 (stereo partly drawn) [Example 681, 5-{5-[(R)-(1,3-Dimethyl-azetidin-3-yl)-hydroxy-(4-isopropyl-phenyl)-methyl]-pyridazin-3-yl}-hexahydro-furo[2,3-c]pyrrol-4-one] | 281
CC(C)c1ccc([C@](O)(c2cnnc(N3CC(c4cccc(C(C)C)n4)CC3=O)c2)C2(C)CN(C)C2)cc1 (stereo partly drawn) [Example 682, 1-{5-[(R)-(1,3-Dimethyl-azetidin-3-yl)-hydroxy-(4-isopropyl-phenyl)-methyl]-pyridazin-3-yl}-4-(6-isopropyl-pyridin-2-yl)-pyrrolidin-2-one] | 7.98
CC(=O)N1CCc2nc(-c3cncc([C@@](O)(c4ccc(C(C)C)cc4)C4(C)CN(C)C4)c3)ncc2C1 [Example 683, 1-(2-{5-[(R)-(1,3-Dimethyl-azetidin-3-yl)-hydroxy-(4-isopropyl-phenyl)-methyl]-pyridin-3-yl}-7,8-dihydro-5H-pyrido[4,3-d]pyrimidin-6-yl)-ethanone] | 105
CC(=O)N1CCc2nc(-c3cncc([C@@](O)(c4ccc(C(C)C)cc4)C4(C)CN(C)C4)c3)ccc2C1 [Example 684, 1-(2-{5-[(R)-(1,3-Dimethyl-azetidin-3-yl)-hydroxy-(4-isopropyl-phenyl)-methyl]-pyridin-3-yl}-7,8-dihydro-5H-[1,6]naphthyridin-6-yl)-ethanone] | 125
CC(=O)N1CCC(c2cnc(-c3cncc([C@@](O)(c4ccc(C(C)C)cc4)C4(C)CN(C)C4)c3)nc2)CC1 [Example 685, 1-[4-(2-{5-[(R)-(1,3-Dimethyl-azetidin-3-yl)-hydroxy-(4-isopropyl-phenyl)-methyl]-pyridin-3-yl}-pyrimidin-5-yl)-piperidin-1-yl]-ethanone] | 242
CC(=O)N1CCC(c2ccnc(-c3cncc([C@@](O)(c4ccc(C(C)C)cc4)C4(C)CN(C)C4)c3)n2)CC1 [Example 686, 1-[4-(2-{5-[(R)-(1,3-Dimethyl-azetidin-3-yl)-hydroxy-(4-isopropyl-phenyl)-methyl]-pyridin-3-yl}-pyrimidin-4-yl)-piperidin-1-yl]-ethanone] | 145
